Tests used:
Assay type in all cases: cell-based
[1] = system: human oral squamous carcinoma cell line OECM-1; assay: Chemosensitivity assay (MTS), OECM-1 parental cells and spheres; settings: Cisplatin doses up to 200 μM for 48 hours, FIG. 4(B)
Experimental: (§1) Cells were seeding in 10-cm cell culture dish at a density of 1×10^6 cells/dish. For the chemosensitivity assay, cells were treated with 10 to 200 μM Cisplatin (Sigma, St Louis, Mo., U.S.A.) for 48 hours. For the radiosensitivity assay, cells were irradiated using a CyberKnife® radiosurgery system (Accuray, Sunnyvale, Calif., U.S.A.) to deliver different doses (2-10 Gy). Relative survival fraction of cells was determined by MTS assay using the CellTiter® 96 Aqueous One Solution Cell Proliferation Assay kit (Promega, Madison, Wis., U.S.A.) after 36 hours of radiation treatment. Please refer to FIG. 4(A), which depicts the survival (%) of SAS and OECM-1 parental cells and their spheres after radiation treatment, and cell viability was evaluated after these cells were treated with radiation doses up to 10 Gy for 36 hours and were subject to a MTS assay. In FIG. 4(A), SAS and OECM-1 spheres were more radioresistant than their parental cells. Please refer to FIG. 4(B), which depicts the survival (%) of SAS and OECM-1 parental cells and their spheres after the Cisplatin treatment, and cell viability was evaluated after these cells were treated with Cisplatin doses up to 200 μM for 48 hours and were subject to a MTS (3-(4,5-dimethylthiazol-2-yl)-5-(3-carboxymethoxyphenyl)-2-(4-sulfophenyl)-2H-tetrazolium) assay.

[2] = system: human oral squamous carcinoma cell line OECM-1; assay: Combined chemo- and radiotherapy (CCRT) treatment, OECM-1 parental cells and spheres; settings: 20 μM Cisplatin for 24 hours followed by radiotherapy, FIG. 4(C)
Experimental: (§2) Cells were seeding in 10-cm cell culture dish at a density of 1×10^6 cells/dish. For the chemosensitivity assay, cells were treated with 10 to 200 μM Cisplatin (Sigma, St Louis, Mo., U.S.A.) for 48 hours. For the radiosensitivity assay, cells were irradiated using a CyberKnife® radiosurgery system (Accuray, Sunnyvale, Calif., U.S.A.) to deliver different doses (2-10 Gy). Relative survival fraction of cells was determined by MTS assay using the CellTiter® 96 Aqueous One Solution Cell Proliferation Assay kit (Promega, Madison, Wis., U.S.A.) after 36 hours of radiation treatment. To imitate the clinical condition, a combined chemo- and radiotherapy (CCRT) treatment was administered on SAS and OECM-1 parental cells and their spheres. Please refer to FIG. 4(C), which depicts the survival (%) of SAS and OECM-1 parental cells and their spheres after Cisplatin treatment followed by radiation treatment. This assay was performed by treating cells with chemotherapy using 20 μM Cisplatin for 24 hours followed by radiotherapy. […] Please refer to FIG. 4(D), which depicts the survival (%) of SAS and OECM-1 parental cells and their spheres after radiation treatment followed by Cisplatin treatment. […]

[3] = system: human tongue cancer cell line SAS; assay: Combined chemo- and radiotherapy (CCRT) treatment, SAS parental cells and spheres; settings: 20 μM Cisplatin for 24 hours followed by radiotherapy, FIG. 4(C)
Experimental: as §2

[4] = system: human tongue cancer cell line SAS; assay: Chemosensitivity assay (MTS), SAS parental cells and spheres; settings: Cisplatin doses up to 200 μM for 48 hours, FIG. 4(B)
Experimental: as §1

N.N.[Cl][Pt][Cl] [Cisplatin]
survival (%) after Cisplatin treatment, spheres vs parental cells [1]: spheres were more resistant to Cisplatin than their parental cells | survival (%) after Cisplatin treatment followed by radiation treatment, vs single treatment [2]: more effective in reducing the survival rate of the parental cells and spheres compared with the single treatment | survival (%) after Cisplatin treatment followed by radiation treatment, vs single treatment [3]: more effective in reducing the survival rate of the parental cells and spheres compared with the single treatment | survival (%) after Cisplatin treatment, spheres vs parental cells [4]: spheres were more resistant to Cisplatin than their parental cells

Source: US20140038289A1, “NONADHESIVE SPHERE CELL CULTURE CONTAINER, SYSTEM, AND METHOD” (NATIONAL DEFENSE MEDICAL CENTER, priority 2012, published 2014)
